One data set has as its system hippocampal neurons. The data set can be described thus: Oxygen-Glucose Deprivation (OGD) of hippocampal neurons. Type of data set: cell-based. As for the experimental part: To explore whether 7,8-dihydroxyflavone exerts any protective effect on hippocampal neurons in Oxygen-Glucose Deprivation (OGD), primary preparations of neurons were treated with BDNF or various flavone derivatives for 30 minutes prior to OGD.

Data set [1] deals with ECD and ICD of TrkA receptor. The data set can be described thus: In vitro binding assay: TrkA ECD and ICD.
Another data set deals with GST-TrkB ECD (Rattus norvegicus, UniProt Q63604). The data set can be described thus: In vitro binding assay with immobilized GST-TrkB ECD on glutathione beads, UV-spectrometry of eluate. The settings on record: 500 nM, 4° C., 30 minutes, FIG. 17. On the procedure:
To further explore the association of 7,8-dihydroxyflavone and the TrkB receptor, an in vitro binding assay was performed. Increasing volumes of GST-TrkB ECD and GST-TrkB ICD were bound to glutathione beads to a total of 250 uL, and 500 nM 7,8-dihydroxyflavone in 250 μl (20% DMSO/80% PBS) was incubated with the beads in the column at 4° C. for 30 minutes. After the incubation, the elute fractions were collected and the concentration of eluted 7,8-dihydroxyflavone was analyzed by UV-spectrometry at a wavelength of 410 nm.

The subject of a further data set is KA-provoked apoptosis. The data set can be described thus: KA-provoked neuronal cell death in TrkB F616A knockin mice, intraperitoneal (caspase-3 immunoblot). Type of data set: in vivo. On the procedure: To determine if 1NMPP1 would make neurons treated with 7,8-dihydroxyflavone vulnerable to KA-provoked neuronal cell death, TrkF616A knockin mice were fed with 1NMPP1 (25 mM) in drinking water one day prior to pharmacological reagent treatment. The next day, the mice were intraperitoneally injected with KA (25 mg/kg), or 7,8-dihydroxyflavone (5 mg/kg) 4 hours prior to KA injection. The control mice were injected with either KA or 7,8-dihydroxyflavone alone, or the mice were administered 7,8-dihydroxyflavone 4 hours before KA. In 4 days, the mice were sacrificed and the brains were homogenated and ultracentrifuged. The supernatant was employed for SDS-PAGE and immunoblotting analysis.

In data set [2] the test system is KA-induced caspase-3 activation. The data set can be described thus: KA-induced neuronal cell death in TrkB F616A mice, oral TrkB agonists. In kind it is in vivo, TrkB F616A knock-in mice. As for the experimental part:
TrkB F616A knockin mice (2-3 months old) were fed 1NMPP1 (25 μM) in drinking water one day before pharmacological reagent treatment. The next day, the mice were orally injected with 7,8-DHF or 4′-DMA-7,8-DHF (5 mg/kg) 4 hours before kainic acid (20 mg/kg). The control mice were injected with saline, 1NMPP1, kainic acid alone or administrated 7,8-DHF or 4′-DMA-7,8-DHF 4 hours before kainic acid. In 4 days, the mice were sacrificed and brains were homogenized and ultra-centrifuged. The supernatant (40 μg) was employed for SDS-PAGE and immunoblotting analysis with indicated antibodies, respectively.
To explore whether the neuroprotective effect of these small molecules is dependent on TrkB activation in vivo, TrkB F616A knock-in mice were used.

The next data set deals with immobility. The data set can be described thus: Forced swim test after 21 days oral treatment. Type of data set: in vivo, C57BL/6J mice. The settings on record: 5 mg/kg, oral injection, FIG. 34. As for the experimental part: Adult male mice (2-3 months old) were randomly submitted to a forced swim test without a pre-swim. Saline, 4′-DMA-7,8-DHF and 7,8-DHF (5 mg/kg) were orally injected for 21 days. The mice were allowed to adapt to the test room for 2 days. The mice were placed in a clear glass cylinder with a diameter of 16 cm, half-filled with clear water at 24° C.
(§1) To explore whether 4′-DMA-7,8-DHF and 7,8-DHF have any antidepressant effect, a forced swim test (6 minutes, immobility recorded in the last 4 minutes) was conducted after chronic treatment of male C57BL/6J mice (8 mice/group) for 21 days via oral injection.

In data set [3] the target is T1, TrkB (Mus musculus, UniProt P15209).
T1 construct: from tissue; host or cells: mouse brain
T1 sequence (P15209 32-821): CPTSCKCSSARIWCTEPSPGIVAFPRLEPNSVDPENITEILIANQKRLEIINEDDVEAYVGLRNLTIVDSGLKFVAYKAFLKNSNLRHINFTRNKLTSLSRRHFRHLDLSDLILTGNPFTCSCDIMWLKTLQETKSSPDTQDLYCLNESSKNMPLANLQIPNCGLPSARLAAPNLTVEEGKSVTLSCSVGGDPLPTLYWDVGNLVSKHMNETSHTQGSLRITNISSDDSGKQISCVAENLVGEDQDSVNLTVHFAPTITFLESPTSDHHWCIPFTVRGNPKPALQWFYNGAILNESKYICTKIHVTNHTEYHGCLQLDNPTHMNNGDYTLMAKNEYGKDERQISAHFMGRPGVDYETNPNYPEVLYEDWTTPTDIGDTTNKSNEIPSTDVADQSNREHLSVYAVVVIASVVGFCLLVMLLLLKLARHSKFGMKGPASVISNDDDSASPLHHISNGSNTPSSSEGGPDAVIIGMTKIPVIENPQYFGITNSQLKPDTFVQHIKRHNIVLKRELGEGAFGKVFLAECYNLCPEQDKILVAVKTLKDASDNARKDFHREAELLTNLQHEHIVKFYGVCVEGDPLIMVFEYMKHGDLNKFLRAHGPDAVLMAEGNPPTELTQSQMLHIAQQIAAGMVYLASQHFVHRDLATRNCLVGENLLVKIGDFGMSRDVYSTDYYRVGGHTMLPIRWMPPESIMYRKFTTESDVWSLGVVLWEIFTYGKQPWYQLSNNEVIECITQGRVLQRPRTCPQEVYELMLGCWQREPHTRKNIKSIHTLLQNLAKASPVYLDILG
The data set can be described thus: Immunoblotting of brain lysates from forced swim test mice: TrkB. Type of data set: in vivo. The settings on record: 5 mg/kg, 21 days oral, anti-p-TrkB 817, FIG. 35. On the procedure:
as §1
On the technique in general: In western blotting, separated proteins are transferred to a membrane and probed.

In another data set the test system is immobility time. The data set can be described thus: Forced swim test in TrkB F616A knockin mice with saline or 1NMPP1 pretreatment. Type of data set: in vivo. The settings on record: drugs for five days, FIG. 36. As for the experimental part:
To assess whether the behavior responses by 7,8-DHF and its derivative are mediated by TrkB receptor, TrkB F616A knockin mice were utilized. The transgenic mice were subjected to saline or 1NMPP1 pretreatment (25 μM), respectively (drinking water provided one day prior to drug injection and maintained throughout whole experiment). The control and/or drugs were provided for five days. […] (Data presented in FIGS. 34, 35, and 36 as mean±SEM; *p<0.05 against vehicle, #P<0.01 against vehicle and ***P<0.0001 against vehicle, student t-test.)

In a further data set the target is TrkA (Mus musculus, UniProt Q3UFB7). The data set can be described thus: Trk activation in wild-type and TrkC knockout cortical neurons: TrkA. In kind it is cell-based, mice. Further details: from tissue; host or cells: mouse brain. The settings on record: FIG. 22. On the procedure:
To further assess whether 7,8-dihydroxyflavone blocks neuronal apoptosis in a TrkB dependent manner, cortical neurons were prepared from homozygous pups of TrkC+/−mice, which were mated to the same genotype. […] Glutamate weakly stimulated both TrkA and TrkB faint phosphorylation regardless of TrkC genotype (FIG. 22, rows 1 and 3). The spontaneous caspase-3 activation in TrkC−/− neurons was suppressed by 7,8-dihydroxyflavone (FIG. 22, row 5).

Data set [4] has as its target TrkB (Rattus norvegicus, UniProt Q63604). The data set can be described thus: Tyrosine phosphorylation of Trk receptors in transfected HEK293 cells: TrkB. In kind it is cell-based. Also noted: expressed in transfected cells; host or cells: HEK293. The settings on record: FIG. 15. An excerpt:
To determine if 7,8-dihydroxyflavone promoted tyrosine phosphorylation of the other Trk receptors, HEK293 cells were transfected with various Trk receptors, followed by treatment with 7,8-dihydroxyflavone.

Molecules are shown by their SMILES.

TrkA, sequence (Q3UFB7 34-799): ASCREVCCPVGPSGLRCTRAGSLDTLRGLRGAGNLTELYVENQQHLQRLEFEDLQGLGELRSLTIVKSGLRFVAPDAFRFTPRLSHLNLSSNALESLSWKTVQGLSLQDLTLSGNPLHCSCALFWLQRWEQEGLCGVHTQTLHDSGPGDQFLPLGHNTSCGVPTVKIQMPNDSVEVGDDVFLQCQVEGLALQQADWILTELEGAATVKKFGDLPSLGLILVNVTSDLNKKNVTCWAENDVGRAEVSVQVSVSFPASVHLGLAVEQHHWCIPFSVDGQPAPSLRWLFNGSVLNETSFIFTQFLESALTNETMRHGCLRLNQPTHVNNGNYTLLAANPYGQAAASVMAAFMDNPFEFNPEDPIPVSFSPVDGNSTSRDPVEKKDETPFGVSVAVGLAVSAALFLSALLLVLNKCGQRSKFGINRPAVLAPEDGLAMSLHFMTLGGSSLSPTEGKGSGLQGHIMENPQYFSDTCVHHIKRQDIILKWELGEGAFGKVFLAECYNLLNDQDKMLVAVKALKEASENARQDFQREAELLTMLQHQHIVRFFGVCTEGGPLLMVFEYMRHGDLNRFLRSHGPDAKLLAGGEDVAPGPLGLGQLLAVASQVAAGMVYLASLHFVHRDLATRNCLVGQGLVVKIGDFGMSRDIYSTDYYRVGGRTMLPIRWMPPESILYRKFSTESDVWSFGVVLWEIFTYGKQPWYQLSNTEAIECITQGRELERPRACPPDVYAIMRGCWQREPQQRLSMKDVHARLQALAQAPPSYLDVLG
TrkB (Rattus norvegicus, UniProt Q63604), sequence (Q63604 32-821): as the sequence (P15209 32-821) above, with T3M, S9T, A10T, V32I, R63K, S84G, M153T, L185I, S394T, S770N counted along it
GST-TrkB ECD, sequence (Q63604 32-429 limits assumed): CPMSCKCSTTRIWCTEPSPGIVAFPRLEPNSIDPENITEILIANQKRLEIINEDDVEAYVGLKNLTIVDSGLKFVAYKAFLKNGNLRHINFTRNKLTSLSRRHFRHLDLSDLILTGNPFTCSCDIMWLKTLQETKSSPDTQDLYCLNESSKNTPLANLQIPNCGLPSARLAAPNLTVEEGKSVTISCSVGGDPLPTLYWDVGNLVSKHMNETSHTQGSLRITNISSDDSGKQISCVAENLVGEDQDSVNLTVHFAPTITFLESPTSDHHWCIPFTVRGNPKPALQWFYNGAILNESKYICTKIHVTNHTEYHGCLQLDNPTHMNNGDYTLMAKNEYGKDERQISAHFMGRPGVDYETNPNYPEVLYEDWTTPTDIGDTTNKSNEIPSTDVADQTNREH

Consider `O=c1cc(-c2ccccc2)oc2c(O)c(O)ccc12` [7,8-dihydroxyflavone], for which the “protective effect in OGD” value in the data set with hippocampal neurons (30 minutes prior to OGD, apoptotic analysis in 3 hours, FIG. 7 left) is “most potent protective effects among the compounds”. In the data set on hippocampal neurons (FIG. 7 right), the “titration assay of protection in OGD” value is on record as “protects neurons in a dose-dependent manner”. Moreover, the “binding to TrkA ECD or ICD” value in [1] is reported as “Neither the ECD nor ICD of TrkA receptor was capable of binding”. For the same molecule, the “concentration of eluted compound as GST-TrkB ECD volumes increased” value on GST-TrkB ECD was “decreased”. Besides, the KA-provoked apoptosis entry in the data set on KA-provoked apoptosis (5 mg/kg intraperitoneally 4 hours prior to KA (25 mg/kg)) is recorded as “suppressed KA-provoked apoptosis”. Moreover, in the data set with KA-provoked apoptosis (1NMPP1 in drinking water one day prior), the “protective effect against KA after 1NMPP1 pretreatment” value is given as “abolished”. In addition, in the data set on KA-provoked apoptosis (FIG. 24), the “apoptosis in TrkB F616A mice, treatment alone without KA” value is recorded as “no effect on apoptosis”. In data set [2] (5 mg/kg orally 4 hours before kainic acid (20 mg/kg), FIG. 31), the “KA-caused caspase-3 activation” value is “markedly diminished”. Besides, in [2] (1NMPP1 (25 μM) in drinking water, FIG. 31 top), the “protective effect after 1NMPP1 pretreatment” value was “abolished”. The “TrkB phosphorylation after 1NMPP1 pretreatment” value in [2] (FIG. 31, 2nd panel) is “notably blocked”. Besides, in the data set with immobility, the swimming immobility result is listed as “significantly decreased”. Further, the “TrkB activation in mouse brain” value on TrkB [3] was “provoke TrkB”. Besides, the “immobility time after 1NMPP1 treatment” value in the data set with immobility time (1NMPP1 25 μM in drinking water) is given as “neither 4′-DMA-7,8-DHF nor 7,8-DHF had any significant effect”. For the same molecule, the “immobility time, saline group” value in the data set on immobility time is on record as “substantially reduced the immobility time”. Besides, the “survival of ischemic insult and treatment” value in the data set on infarct volume (5 mg/kg intraperitoneally) is “All animals included in the study survived”. In the data set with infarct volume (5 mg/kg intraperitoneally 5 minutes prior to reperfusion, TTC 24 hours after MCAO, FIG. 20), the infarct volumes entry was “reduced infarct volumes”. In addition, the “TrkA activation in wild-type and TrkC knockout neurons” value at TrkA was “not TrkA activation”. Also, the “tyrosine phosphorylation of TrkB receptor” value at TrkB [4] is “elicited tyrosine phosphorylation”.
